Row | melting point | SMILES
1 | 261 to 262 °C | Cc1ccc(-c2csc(-c3ccc(C(=O)O)cc3)n2)cc1C
2 | 164 to 168 °C | O=C1c2ccc(Cl)cc2C(O)N1CCBr (stereo not drawn)
3 | 206 to 212 °C | CC(=O)ON1C(C)(C)CC(OC(=O)c2ccc(C(=O)OC3CC(C)(C)N(OC(C)=O)C(C)(C)C3)cc2)CC1(C)C
4 | 127 to 130 °C | CC(C)(C)c1cc(Cl)c2c(c1)C=NS(=O)(=O)O2
5 | 136 to 138 °C | CCCc1nn(C)c2c(=O)n(CCCc3cccc(OC(C)(CC)C(=O)O)c3)c(C)nc12 (stereo not drawn)
6 | 158 to 159 °C | Cc1cc(-c2ccc(S(C)(=O)=O)cc2)n(-c2ccc(F)cc2)c1Br
7 | 225 to 227 °C | COC(=O)Nc1cc(-c2ccc(S(C)(=O)=O)cc2)n(-c2ccc(F)cc2)n1
8 | 145 to 155 °C | O=c1c(C2=CS(=O)(=O)c3cc(NS(=O)(=O)C4CC4)ccc3N2)c(O)c2cc(F)ccc2n1CCC1CC1
9 | 119 to 122 °C | CN(Cc1ccc2c(Br)c(OCC(=O)O)ccc2c1)C(=O)c1oc2ccccc2c1CCc1ccccc1
10 | 108 to 110 °C | C[C@@H](O)Cn1ccc2cc(Cl)c(F)cc21
11 | 97 to 98 °C | CC1(C)Oc2ccc(CNc3ccc(Cl)cc3)cc2OC1=O
12 | 216 to 217 °C | O=c1c2cc(OCc3ccccc3)ccc2[nH]c2c([N+](=O)[O-])ccc(Cl)c12
13 | 238 to 240 °C | CCOC(=O)c1cccc(Nc2ncc3cc(-c4c(Cl)cccc4Cl)c(=O)n(C)c3n2)c1
14 | 240 °C | CCCC(=O)Nc1n[nH]c2cc(Cl)c(-c3ccc(CC)cc3)cc12
15 | 46 to 47 °C | COC(=O)c1ccc2c(C)csc2c1
16 | 126 °C | C[Si](C)(C)CC1=C[C@@H](c2ccccc2)[C@H]2C(=O)OC(=O)[C@H]2C1 (racemic)
17 | 149 to 151 °C | COCCCNS(=O)(=O)Cc1cccc(Nc2cc(-c3ccccc3OC)ncn2)c1
18 | 216 to 217 °C | NC(=O)NCCSc1ccc2nccn2n1
19 | 94 to 97 °C | CCCC1C/C(=C\C(=O)NC2CC2)c2cc(F)ccc21 (stereo not drawn)
20 | 169 to 172 °C | CC(C)(C)C1=C(CO)N=NC1=O
21 | 129 to 130 °C | COc1c(C)c(C)c(OC)c(C(O)(c2ccc(F)cc2)C(C)C)c1C (stereo not drawn)
22 | 125 to 126 °C | CC(=O)Oc1c(CN(C)C)c2c(c3c1OC(C)(C)C3)C(c1ccccc1)=NC(C)(C)C2
23 | 209 °C | O=C(Nc1cccc(S(=O)(=O)N(CCO)CCO)c1)c1cnn2c(C(F)(F)F)cc(-c3ccc(C(F)(F)F)cc3)nc12
24 | 140 °C | COc1cc(CCCN2CCc3cc(OC)c(OC)cc3C2)ccc1NC(=O)c1cccc2c(=O)c3c(OC)ccc(OC)c3[nH]c12

Row | melting point | SMILES
25 | 89 to 91 °C | COc1cc(Br)cc(C23CC4CC(CC(C4)C2)C3)c1OCc1ccccc1
26 | 81 to 83 °C | CC(C)(C)OC(=O)C=Cc1cncc2ccccc12
27 | 212 to 214 °C | O=C(O)c1ccc(C(=O)/C=C/c2ccc(N3CCCC3)c(-c3cccs3)c2)cc1
28 | 113 to 114 °C | O=C(NCCc1cccs1)C12CC3CC(CC1C3)C2
29 | 83 to 85 °C | COCCOc1cc(Oc2ccc(C(F)(F)F)cn2)ccc1CCCOc1cc(CCC(=O)O)n(-c2ccccc2)n1
30 | 100 to 102 °C | Cc1c(C(=O)c2ccc3ccccc3c2)cccc1[N+](=O)[O-]
31 | 148 °C | C#CCn1ncc(=O)[nH]c1=O
32 | 122 to 123 °C | Cc1ccc(CC#N)c(OCc2ccc(OCc3nc(-c4ccccc4)oc3C)cc2)n1
33 | 194 to 195 °C | O=c1c(CCCc2cnccn2)cc2cccnc2n1-c1cccc([N+](=O)[O-])c1
34 | 171 to 172 °C | COc1ccc(N2CCOCC2)c2sc(NC(=O)N3CCCOCC3)nc12
35 | 156 to 158 °C | O=C1OC(c2ccccc2)=NC1=Cc1ccc(Oc2ccccc2)cc1
36 | 176 to 179 °C | NC(=O)Nc1ccc(C(O)(C(F)(F)F)C(F)(F)F)cc1
37 | > 300 °C | O=C(O)c1ccc(-c2ccc(OCc3ccccc3)cc2)cc1
38 | 111 to 113 °C | O=c1ccccn1[C@@H]1c2cc(C(F)(F)C(F)(F)C(F)(F)F)ccc2OC(CF)(CF)[C@H]1O (relative stereo)
39 | 236 to 239 °C | CCCC(=O)c1cc2c(=O)n(NS(C)(=O)=O)c(=O)[nH]c2cc1C(F)(F)F
40 | 105 °C | Brc1cccc(C=C2c3ccccc3CCc3ccccc32)c1
41 | 94.5 °C | COc1ccc(N2CCN(N=O)CC2)cc1
42 | 256 to 257 °C | O=C(c1ccncc1)c1cc2c(c(C(=O)O)c1)OC(c1ccccc1)(c1ccccc1)O2
43 | 113 to 114 °C | CCOC(=O)c1sc(SC)c2c1CCC(C(OCC)OCC)C2=O (stereo not drawn)
44 | 185 °C | Cc1ccc(C(=O)C2=C(O)C(=O)N(c3ccc(C)nn3)C2c2ccc(N3CCN(CCN(C)C)CC3)cc2)cc1 (stereo not drawn)
45 | 84 to 122 °C | CC(C)CC(NC(=O)C(Cc1ccccc1)NC(=O)C1CCCCC1C(=O)O)C(=O)O (stereo not drawn)
46 | 213 °C | O=C(O)c1cc(NC(=O)C(F)(F)F)c(C(=O)c2ccccc2)c(OCc2ccccc2)c1
47 | 151 to 158 °C | CCOC(=O)c1ccccc1-c1ccc2nc[nH]c(=O)c2c1
48 | 86 °C | CCOCC(O)(c1cccnc1)C(C)c1ccc(Cl)cc1Cl (stereo not drawn)

Row | melting point | SMILES
49 | 171 to 173 °C | Nn1c(C(F)(F)F)cc(=O)n(-c2c(F)cc(Cl)c3c2ONC3c2ccccc2)c1=O (stereo not drawn)
50 | 152 to 154 °C | CCOC(=O)C(=O)c1c[nH]c2c(CC)cccc12
51 | 180 to 181 °C | O=C(NCC1(c2ccccc2)CCCCC1)Nc1ccc(Cl)c(Cl)c1
52 | 252 °C | Cc1c(O)c(=O)[nH]c2ccccc2c1=O
53 | 122 to 123 °C | O=C1C=C(c2ccc(OC(F)(F)F)cc2)CO1
54 | 261 to 263 °C | Cc1nc(-n2ccc(OCc3ccc(C(F)(F)F)o3)cc2=O)sc1C(=O)O
55 | 143 °C | O=C1c2ccccc2C(=O)N1c1cc(C(Cl)(Cl)Cl)ccn1
56 | 123 to 124 °C | CCCCCCCNC(=O)Nc1ccccc1C(=O)NCCCC1CCN(C(c2ccccc2)c2ccccc2)CC1
57 | 198 °C | N=C(N)c1ccc(N2CC(CN3CCCC(C(=O)O)C3)OC2=O)cc1 (stereo not drawn)
58 | 174 °C | N#Cc1ncccc1OC1SCC(O)C(O)C1O (stereo not drawn)
59 | 114 to 115 °C | Nc1ccc(OCc2ccccn2)nn1
60 | 141 to 142 °C | CCCCOC(=O)N[C@H](C(=O)NCCc1ccc(OCC#Cc2ccc(Cl)cc2)c(OC)c1)C(C)C
61 | 133 to 141 °C | COC(=O)CCCc1cc2nc(Cl)ccc2n1S(=O)(=O)c1ccc2ncccc2c1
62 | 290 to 291 °C | Cc1csc2nc(C(=O)NCc3cccc(CNC(=O)c4nc[nH]n4)c3)[nH]c(=O)c12
63 | 109 to 114 °C | CCSc1nc(O)nn1C(C)C
64 | 141 to 142 °C | Cc1nnc(-c2cnc3occ(-c4ccccc4Cl)c3c2)o1
65 | 141 to 144 °C | C=CCn1c(C)nc(N2CCc3ccccc3CC2)c(C#N)c1=O
66 | 203 to 206 °C | CNc1cccc([N+](=O)[O-])c1C#N
67 | 128 to 130 °C | CCCn1cc(C(=O)OCC)c(=O)c2cc(F)c(-n3cccc3)cc21
68 | 137 to 138 °C | CC(=O)ON(C)C(=O)C(C)Nc1c([N+](=O)[O-])cc(C)cc1[N+](=O)[O-] (stereo not drawn)
69 | 182 to 183 °C | CC(C)(C)c1cc(CCc2ccccc2NC(=O)NCC(C)(C)c2ccccc2F)cc(C(C)(C)C)c1O
70 | 126 °C | N#CC1(C#N)C2CC(C(Cl)C2Cl)C1(Cl)Cl (stereo not drawn)
71 | 222 °C | Cc1cccc2c1cc(C(=O)NCC1CCN(CC3(O)CCOCC3)CC1)c(=O)n2C(C)C
72 | 243 to 244 °C | Brc1cnn2c(-c3cccnc3)ccnc12

Row | melting point | SMILES
73 | 225 to 226 °C | Cc1c(-c2ccccc2)n[nH]c1-c1ccccc1
74 | 181 °C | CC1(C)OC2C(Br)=CC(CC(N)=O)C(Br)C2O1 (stereo not drawn)
75 | 187 to 189 °C | CCCC(c1cc(C(=O)O)ccc1OCc1ccc(Br)cc1)n1ccnc1 (stereo not drawn)
76 | 114 to 115 °C | CCC(CC)Nc1c([N+](=O)[O-])cc(CC=NO)c(C(C)C)c1[N+](=O)[O-]
77 | 174 °C | CC(=O)c1ccc(NC(=O)c2ccc(C=O)cc2)cc1
78 | 110 to 112 °C | O=S(=O)(Nc1cccc(F)c1)c1cc(S(=O)(=O)Nc2cccc(F)c2)c2cc(O)ccc2c1
79 | 170 to 171 °C | CCOC(=O)c1ccc2[nH]cc(CCNC(=O)OC(C)(C)C)c2c1
80 | 173 to 174 °C | CSc1cc(-c2nc(=O)c3ccccc3s2)ccn1
81 | 170 to 172 °C | O=C1OCCN1CCN1CCN(C2Cc3cc(Br)ccc3Sc3ccccc32)CC1 (stereo not drawn)
82 | 82 to 83 °C | Cc1cc(NCc2ccccc2)c(C)c2c1OCC2c1ccc(C(C)C)cc1 (stereo not drawn)
83 | 262 to 265 °C | Cn1cc(S(=O)(=O)Cl)c(=O)c2ccc(C(F)(F)F)cc21
84 | 42 to 44 °C | COCCOCCOCCOCCOc1ccc(N)cc1
85 | 73 to 76 °C | CCCC(NOCC)=C1C(=O)CC(c2cc3ccccc3s2)CC1=O (stereo not drawn)
86 | 114 to 116 °C | Cn1ccnc1COc1ccccc1N
87 | 80 to 89 °C | Cc1noc(-c2cccc(CN3C(=O)C4(COc5cc6c(cc54)OCCO6)c4ccccc43)c2)n1 (stereo not drawn)
88 | 136 to 137 °C | CCCCS(=O)(=O)Nc1cccc(COc2cccc3cccnc23)c1
89 | 150 to 152 °C | Cn1nc(OC2=CC(CF)(CF)Oc3ccc(C(F)(F)C(F)(F)F)cc32)ccc1=O
90 | 165 to 167 °C | COc1cc(=O)n(-c2cccc(C(F)(F)F)c2)nc1-c1ccnn1-c1ccccc1
91 | 155 to 159 °C | COc1ccc(Nc2nc(Cl)nc(NCCCO)n2)cc1
92 | 145 to 147 °C | CC(=O)NC[C@@H]1C[C@H]1c1cccc2nn(C)cc12 (relative stereo)
93 | 155 to 158 °C | CC(c1oc2ccccc2c(=O)c1-c1cccc(F)c1)n1cnc2c(N)ncnc21 (stereo not drawn)

Row | SMILES | melting point
94 | Cn1cnc2cc(NC(=O)c3cc4cc(F)ccc4n3Cc3cccc(F)c3)cnc21 | 235 to 236 °C
95 | CC(C)(O)CCn1c(=O)n(C(=O)N[C@H](C(N)=O)C(C)(C)C)c2ccccc21 | 248 °C
96 | CCc1nnc2n1-c1ccc(Cl)cc1C(c1ccccc1)=NC2 | 229 to 230 °C
97 | O=C(c1ccccc1)c1cnn2c(-c3cccc(NC(=O)C4CC4)c3)ccnc12 | 210 to 212 °C
98 | CCCc1c(C(=O)CO)c2ccc(C(N)=O)cc2n1Cc1ccccc1Cl | 231 to 234 °C
